Laboratory results from patent US6352958B1, “Cycloimido-substituted benzofused heterocyclic herbicides” (FMC Corporation, priority 1997, dated 2002).

How the values were obtained:
Type in all cases: in vivo
[1] = system: morningglory (Ipomea lacunosa or Ipomea hederacea); experiment: Preemergence herbicidal activity, morningglory; settings: Rate of Application 0.3 Kg/Ha, examined after 12-17 days
Protocol: (§1) The benzofused heterocyclic compounds of this invention were tested for pre- and postemergence herbicidal activity using a variety of crops and weeds. The test plants included soybean (Glycine max var. Winchester), field corn (Zea mays var. Pioneer 3732), wheat (Triticum aestivum var. Lew), morningglory (Ipomea lacunosa or Ipomea hederacea), velvetleaf (Abutilon theophrasti), green foxtail (Setaria viridis), Johnsongrass (Sorghum halepense), blackgrass (Aloepecurus myosuroides), common chickweed (Stellaria media), and common cocklebur (Xanthium strumarium L.).
(§2) For preemergence testing, two disposable fiber flats (8 cm×15 cm×25 cm) for each rate of application of each candidate herbicide were filled to an approximate depth of 6.5 cm with steam-sterilized sandy loam soil. The soil was leveled and impressed with a template to provide five evenly spaced furrows 13 cm long and 0.5 cm deep in each flat. Seeds of soybean, wheat, corn, green foxtail, and johnsongrass were planted in the furrows of the first flat, and seeds of velvetleaf, morningglory, common chickweed, cocklebur, and blackgrass were planted in the furrows of the second flat. The five-row template was employed to firmly press the seeds into place. A topping soil of equal portions of sand and sandy loam soil was placed uniformly on top of each flat to a depth of approximately 0.5 cm. Flats for postemergence testing were prepared in the same manner except that they were planted 9-14 days prior to the preemergence flats and were placed in a greenhouse and watered, thus allowing the seeds to germinate and the foliage to develop.
(§3) In both pre- and postemergence tests, a stock solution of the candidate herbicide was prepared by dissolving 0.27 g of the compound in 20 mL of water/acetone (50/50) containing 0.5% v/v sorbitan monolaurate. For an application rate of 3000 g/ha of herbicide a 10 mL portion of the stock solution was diluted with water/acetone (50/50) to 45 mL.
(§4) The preemergence flats were initially subjected to a light water spray. The four flats were placed two by two along a conveyor belt (i.e., the two preemergence followed by the two postemergence flats). The conveyor belt fed under a spray nozzle mounted about ten inches above the post-emergent foliage. The preemergent flats were elevated on the belt so that the soil surface was at the same level below the spray nozzle as the foliage canopy of the postemergent plants. The spray of herbicidal solution was commenced and once stabilized, the flats were passed under the spray at a speed to receive a coverage equivalent of 100 L/ha. At this coverage the application rates are those shown in the above table for the individual herbicidal solutions. The preemergence flats were watered immediately thereafter, placed in the greenhouse and watered regularly at the soil surface. The postemergence flats were immediately placed in the green-house and not watered until 24 hours after treatment with the test solution. Thereafter they were regularly watered at ground level. After 12-17 days the plants were examined and the phytotoxicity data were recorded.
(§5) Phytotoxicity data were taken as percent control. Percent control was determined by a method similar to the 0 to 100 rating system disclosed in “Research Methods in Weed Science,” 2nd ed., B. Truelove, Ed.; Southern Weed Science Society; Auburn University, Auburn, Ala., 1977.

[2] = system: wheat (Triticum aestivum var. Lew); experiment: Postemergence herbicidal activity, wheat; settings: rate of application 0.3 Kg/Ha, rated after 12-17 days
Protocol: as §1, §2, §3, §4, §5

[3] = system: green foxtail (Setaria viridis); experiment: Preemergence herbicidal activity, green foxtail; settings: Rate of Application 0.3 Kg/Ha, examined after 12-17 days
Protocol: as §1, §2, §3, §4, §5

[4] = system: common chickweed (Stellaria media); experiment: Preemergence herbicidal activity, chickweed; settings: Rate of Application 0.3 Kg/Ha, examined after 12-17 days
Protocol: as §1, §2, §3, §4, §5

[5] = system: wheat (Triticum aestivum var. Lew); experiment: Preemergence herbicidal activity, wheat; settings: Rate of Application 0.3 Kg/Ha, examined after 12-17 days
Protocol: as §1, §2, §3, §4, §5

[6] = system: velvetleaf (Abutilon theophrasti); experiment: Postemergence herbicidal activity, velvetleaf; settings: rate of application 0.3 Kg/Ha, rated after 12-17 days
Protocol: as §1, §2, §3, §4, §5

[7] = system: green foxtail (Setaria viridis); experiment: Postemergence herbicidal activity, green foxtail; settings: rate of application 0.3 Kg/Ha, rated after 12-17 days
Protocol: as §1, §2, §3, §4, §5

[8] = system: field corn (Zea mays var. Pioneer 3732); experiment: Postemergence herbicidal activity, corn; settings: rate of application 0.3 Kg/Ha, rated after 12-17 days
Protocol: as §1, §2, §3, §4, §5

[9] = system: field corn (Zea mays var. Pioneer 3732); experiment: Preemergence herbicidal activity, corn; settings: Rate of Application 0.3 Kg/Ha, examined after 12-17 days
Protocol: as §1, §2, §3, §4, §5

[10] = system: common chickweed (Stellaria media); experiment: Postemergence herbicidal activity, chickweed; settings: rate of application 0.3 Kg/Ha, rated after 12-17 days
Protocol: as §1, §2, §3, §4, §5

[11] = system: soybean (Glycine max var. Winchester); experiment: Preemergence herbicidal activity, soybean; settings: Rate of Application 0.3 Kg/Ha, examined after 12-17 days
Protocol: as §1, §2, §3, §4, §5

[12] = system: velvetleaf (Abutilon theophrasti); experiment: Preemergence herbicidal activity, velvetleaf; settings: Rate of Application 0.3 Kg/Ha, examined after 12-17 days
Protocol: as §1, §2, §3, §4, §5

[13] = system: soybean (Glycine max var. Winchester); experiment: Postemergence herbicidal activity, soybean; settings: rate of application 0.3 Kg/Ha, rated after 12-17 days
Protocol: as §1, §2, §3, §4, §5

[14] = system: Johnsongrass (Sorghum halepense); experiment: Postemergence herbicidal activity, johnsongrass; settings: rate of application 0.3 Kg/Ha, rated after 12-17 days
Protocol: as §1, §2, §3, §4, §5

[15] = system: Johnsongrass (Sorghum halepense); experiment: Preemergence herbicidal activity, johnsongrass; settings: Rate of Application 0.3 Kg/Ha, examined after 12-17 days
Protocol: as §1, §2, §3, §4, §5

[16] = system: common cocklebur (Xanthium strumarium L.); experiment: Postemergence herbicidal activity, cocklebur; settings: rate of application 0.3 Kg/Ha, rated after 12-17 days
Protocol: as §1, §2, §3, §4, §5

[17] = system: morningglory (Ipomea lacunosa or Ipomea hederacea); experiment: Postemergence herbicidal activity, morningglory; settings: rate of application 0.3 Kg/Ha, rated after 12-17 days
Protocol: as §1, §2, §3, §4, §5

[18] = system: common cocklebur (Xanthium strumarium L.); experiment: Preemergence herbicidal activity, cocklebur; settings: Rate of Application 0.3 Kg/Ha, examined after 12-17 days
Protocol: as §1, §2, §3, §4, §5

[19] = system: blackgrass (Aloepecurus myosuroides); experiment: Preemergence herbicidal activity, blackgrass; settings: Alopecurus myosuroides, pre-emergence, Rate of Application 0.3 Kg/Ha, examined after 12-17 days, read-out: PREEMERGENCE HERBICIDAL ACTIVITY (% CONTROL) ALOMY
Protocol: as §1, §2, §3, §4, §5

Structure (SMILES)	PREEMERGENCE HERBICIDAL ACTIVITY (% CONTROL) IPOSS [1]	Postemergence herbicidal activity (% control) WHT [2]	PREEMERGENCE HERBICIDAL ACTIVITY (% CONTROL) SETVI [3]	PREEMERGENCE HERBICIDAL ACTIVITY (% CONTROL) STEME [4]	PREEMERGENCE HERBICIDAL ACTIVITY (% CONTROL) WHT [5]	Postemergence herbicidal activity (% control) ABUTH [6]	Postemergence herbicidal activity (% control) SETVI [7]	Postemergence herbicidal activity (% control) CRN [8]	PREEMERGENCE HERBICIDAL ACTIVITY (% CONTROL) CRN [9]	Postemergence herbicidal activity (% control) STEME [10]	PREEMERGENCE HERBICIDAL ACTIVITY (% CONTROL) SOY [11]	PREEMERGENCE HERBICIDAL ACTIVITY (% CONTROL) ABUTH [12]	Postemergence herbicidal activity (% control) SOY [13]	Postemergence herbicidal activity (% control) SORHA [14]	PREEMERGENCE HERBICIDAL ACTIVITY (% CONTROL) SORHA [15]	Postemergence herbicidal activity (% control) XANPE [16]	Postemergence herbicidal activity (% control) IPOSS [17]	PREEMERGENCE HERBICIDAL ACTIVITY (% CONTROL) XANPE [18]	also measured
CC(=O)OC(C)(C)c1cc2c(Cl)cc(F)c(-n3c(=O)cc(C(F)(F)F)n(C)c3=O)c2o1 [Compound 253]	100%	100%	100%	100%	95%	100%	100%	100%	100%	100%	100%	100%	95%	100%	100%	100%	100%	–	–
Cn1c(C(F)(F)F)cc(=O)n(-c2c(F)cc(Cl)c3cc(CCO)oc23)c1=O [Compound 239]	100%	60%	100%	100%	70%	100%	100%	80%	90%	100%	100%	100%	95%	80%	90%	100%	100%	–	–
CCOC(=O)c1cc2c(Cl)ccc(-n3c(=O)cc(C(F)(F)F)n(C)c3=O)c2o1 [Compound 268]	95%	40%	60%	20%	30%	50%	70%	60%	50%	20%	30%	100%	70%	40%	60%	–	90%	0%	–
CCCCc1cc2c(Cl)ccc(-n3c(=O)cc(C(F)(F)F)n(C)c3=O)c2o1 [Compound 225]	50%	30%	100%	70%	20%	100%	90%	60%	30%	–	40%	90%	60%	60%	60%	70%	75%	50%	–
CC(=O)OC(C)(C)c1nc2c(-n3c(=O)cc(C(F)(F)F)n(C)c3=O)c(F)cc(Br)c2o1 [Compound 104, 1-METHYL-6-TRIFLUOROMETHYL-3-[7-BROMO-5-FLUORO-2-(2-METHYLCARBONYLOXYPROP-2-YL)BENZOXAZOL-4-YL]-2,4(1 H,3H)-PYRIMIDINEDIONE]	–	–	–	–	–	–	–	–	–	–	–	–	–	–	–	–	–	–	inhibition at 300 g/ha ([1]; Ipomoea, pre-emergence, read-out: PREEMERGENCE HERBICIDAL ACTIVITY (% CONTROL) IPOSS): 100%; inhibition at 300 g/ha ([2]; Triticum aestivum, post-emergence, read-out: Postemergence herbicidal activity (% control) WHT): 100%; inhibition at 300 g/ha ([3]; Setaria viridis, pre-emergence, read-out: PREEMERGENCE HERBICIDAL ACTIVITY (% CONTROL) SETVI): 100%; inhibition at 300 g/ha ([5]; Triticum aestivum, pre-emergence, read-out: PREEMERGENCE HERBICIDAL ACTIVITY (% CONTROL) WHT): 100%; inhibition at 300 g/ha ([6]; Abutilon theophrasti, post-emergence, read-out: Postemergence herbicidal activity (% control) ABUTH): 100%; inhibition at 300 g/ha ([7]; Setaria viridis, post-emergence, read-out: Postemergence herbicidal activity (% control) SETVI): 100%; inhibition at 300 g/ha ([18]; Xanthium strumarium, pre-emergence, read-out: PREEMERGENCE HERBICIDAL ACTIVITY (% CONTROL) XANPE): 100%; inhibition at 300 g/ha ([8]; Zea mays, post-emergence, read-out: Postemergence herbicidal activity (% control) CRN): 100%; inhibition at 300 g/ha [19]: 100%; inhibition at 300 g/ha ([9]; Zea mays, pre-emergence, read-out: PREEMERGENCE HERBICIDAL ACTIVITY (% CONTROL) CRN): 100%; inhibition at 300 g/ha ([11]; Glycine max, pre-emergence, read-out: PREEMERGENCE HERBICIDAL ACTIVITY (% CONTROL) SOY): 100%; inhibition at 300 g/ha ([12]; Abutilon theophrasti, pre-emergence, read-out: PREEMERGENCE HERBICIDAL ACTIVITY (% CONTROL) ABUTH): 100%; inhibition at 300 g/ha ([13]; Glycine max, post-emergence, read-out: Postemergence herbicidal activity (% control) SOY): 100%; inhibition at 300 g/ha ([14]; Sorghum halepense, post-emergence, read-out: Postemergence herbicidal activity (% control) SORHA): 100%; inhibition at 300 g/ha ([15]; Sorghum halepense, pre-emergence, read-out: PREEMERGENCE HERBICIDAL ACTIVITY (% CONTROL) SORHA): 100%; inhibition at 300 g/ha ([17]; Ipomoea, post-emergence, read-out: Postemergence herbicidal activity (% control) IPOSS): 100%
